Source: patent publication US20250352534A1 (Tesaro, Inc., priority 2022, published 2025)
pEC50: −log10 of the molar value. Converted amounts (≈) assume the structure as drawn. Where two headings read alike, the source gives them in different places.

Assays:
[1] = system: MGMT-unmethylated newly-diagnosed glioblastoma
From the text: Participants will continue receiving maintenance treatment until progression of disease, unacceptable toxicity or death, withdrawal of consent, loss to follow-up, or study termination by sponsor.
• 1. […] Expansion: Examine progression-free survival rate measured from time of surgery to date of recurrence.

BCRP (ABCG2) = test: in vivo; details: male, rat, brain / plasma, intravenous, BCRP knock-out rat
Method: (§1) At least three days prior to the start of the study, six male rats per group (total 24 rats) received surgically implanted femoral vein and carotid artery catheters for infusion of the test molecule and blood sampling, respectively. Doses were filtered prior to administration and the actual dose administered to the animals was quantified. All PK parameters were calculated based on the actual dose administered to each animal. Animals received an intravenous bolus loading dose followed by a constant intravenous infusion to maintain steady state of drug level. At the end of the infusion, animals were euthanized and brain tissues were collected. Tissue homogenates were prepared in PBS (1:4 w/v). LC-MS/MS method was used to quantitate drug concentrations. Tissue homogenate concentrations were corrected for test compound contained in residual plasma in the tissue. The tissue-to-plasma ratio was calculated by dividing corrected tissue concentration by steady-state plasma concentration. […] Data are reported as fraction unbound (Fu).

[2] = system: P-gp (Mdr1-a) and BCRP (ABCG2); test: in vivo; details: male, rat, brain / plasma, intravenous; for Kp: Brain:plasma (Kp) ratio; for Kp uu: Unbound brain:plasma ratio (Kp, uu)
Method: as §1

P-gp (Mdr1-a) = test: in vivo; details: male, rat, brain / plasma, intravenous, P-gp knock-out rat
Method: as §1

[3] = system: P-gp (P-glycoprotein/Mdr1-a) and BCRP (ABCG2); test: in vivo
Method: as §1

in vitro = details: rat, brain homogenate
Method: as §1

[4] = brain penetration in mouse brain metastatic tumor model (LC-MS, MALDI IMS); format: in vivo, mice; details: for MALDI IMS Brain Section Median, adjusted free concentration / MALDI IMS Brain Section Median, total concentration / Bulk Brain Homogenate Avg, adjusted free concentration / Bulk Brain Homogenate Avg, total concentration / concentration at 2 h: 2 hr post final dose; for Bulk Brain Homogenate Avg, adjusted free concentration / Bulk Brain Homogenate Avg, total concentration: LC-MS; for concentration at 2 h: plasma, po QD 5 days, niraparib 35 mg/kg, olaparib 50 mg/kg, read-out: Terminal Plasma Avg, total concentration
From the text: Female mice (CrTac:NCr-Foxnlnu; 6 w/o) received 2.5E5 luciferase transfected human breast cancer line (MDA 231-BRM2-831) via intracardiac injection. Mice were imaged twice/week using bioluminescence imaging (BLI) to monitor tumor growth. […] Tissue collected between each imaging plane was homogenized for LC-MS bioanalysis.

[5] = brain penetration in healthy Rhesus macaque monkeys (LC-MS, MALDI IMS); format: in vivo; details: for Bulk Brain Homogenate, adjusted free concentration / Bulk Brain Homogenate, total concentration: LC-MS; for Terminal CSF / Terminal Plasma, adjusted free concentration: at necropsy; for Kp uu: male, rhesus monkey, brain homogenate / plasma, oral
Method: Pre-dose blood was collected daily and terminal blood, cerebrospinal fluid (CSF), and brain tissue was collected at necropsy. […] Blood, CSF, and bulk homogenates of brain tissue were analyzed by LC-MS bioanalysis.

PAR (PARP inhibition) = details: 17/22 patients
From the text: For PD analysis, intraoperatively-collected gadolinium-enhancing tumor tissue will be sectioned into 4 similarly-sized tissue portions. Two tissue specimens will be exposed to 10 Gy of IR using a RAD2000 device and two specimens will be sham irradiated (non-irradiated). One pair of sham control and 10 Gy radiated tissue will be fixed in formalin solution for FFPE slides. The other pair will be snap-frozen for PAR ELISA assay.
A ‘functional’ PD assay examining PAR activity in the setting of ex vivo irradiation will serve as a secondary endpoint in this protocol. In the Ivy Center's CLIA-certified PD Core, FFPE embedded tumor tissue from both ex vivo irradiated and non-irradiated to assess changes in PAR, cleaved caspase 3, γH2AX and Ki67 using immunohistochemistry (IHC) assays. Alternatively, ELISA assays to quantify PAR levels will be performed using frozen lysates from the second pair of control and irradiated samples.
Evidence of PARP inhibition was assessed by 10 Gy ex vivo irradiation of surgical tissue and quantification of PARylation compared to non-irradiated control tissue.
PARP inhibition was assessed by quantification of PAR induction after 10 Gy ex vivo irradiation in surgical tissue compared to non-irradiated control tissue.

physchem = details: aqueous buffer
clinical = details: human, oral
Method: (§2) The final presurgical dose will be administered 3-5 hours or 8-10 hours before tumor resection. Assignment to time-cohorts will be random. […] In each of the two time-cohorts, tumor PK and PD analyses will be performed at the Ivy Brain Tumor Center.
(§3) For PK analysis, blood, CSF, and brain tumor tissue samples (gadolinium enhancing and non-enhancing) will be collected intraoperatively. Additional blood samples will be obtained on Day 1 pre-dose and on Day 4 (the day of the surgery) at pre-dosing (trough level), 0.5, 1, 2, 4, 6, 9-, 12-, 24-, and 48-hours post-dose.
(§4) Tumor-to-plasma ratios will be calculated. All assays and analyses will be developed, validated, and performed at Ivy Brain Tumor Center.
(§5) Tumor tissue (enhancing and nonenhancing regions), cerebrospinal fluid (CSF), and plasma were collected. […] Evidence of PARP inhibition was assessed by 10 Gy ex vivo irradiation of surgical tissue and quantification of PARylation compared to non-irradiated control tissue.
(§6) Tumor tissue (enhancing and non-enhancing regions), cerebrospinal fluid (CSF), and plasma were collected. […] PARP inhibition was assessed by quantification of PAR induction after 10 Gy ex vivo irradiation in surgical tissue compared to non-irradiated control tissue. A PK ‘trigger’ determined eligibility for the therapeutic phase 2 expansion portion of the study.

PARP activity = details: read-out: inhibition of PARP activity EC50; whole cell assay; cited from earlier work
[6] = system: cancer cells with mutant BRCA-1 and BRCA-2; details: read-out: inhibition of proliferation CC50; cited from earlier work
[7] = clinical safety, Phase 0 and expansion phase Arm A; details: for tolerability: glioblastoma patients
Method: as §6

[8] = Phase 0 Arm A tumor pharmacokinetics (LC-MS/MS) in newly-diagnosed GBM patients
Method: as §2, §3, §4, §5, §6

[9] = Unbound brain:plasma ratio (Kp, uu)
[10] = female, CrTac:NCr-Foxnlnu, mouse, oral, BM mice, from bulk brain homogenate and terminal plasma free concentrations
[11] = female, CrTac:NCr-Foxnlnu, mouse, oral, BM (brain metastases) mice
[12] = female, CrTac:NCr-Foxnlnu, mouse, oral, Control mice
[13] = Monkey 1, Day 1, po daily 5 days, niraparib 6 mg/kg, olaparib 10 mg/kg
[14] = Monkey 2, Day 1, po daily 5 days, niraparib 6 mg/kg, olaparib 10 mg/kg
[15] = healthy Rhesus macaque monkeys, five days oral administration
[16] = enhancing tumor tissue / plasma
[17] = non-enhancing tumor tissue / plasma

NC(=O)c1cccc2cn(-c3ccc([C@@H]4CCCNC4)cc3)nc12 [niraparib, (3S)-3-[4-{7-(aminocarbonyl)-2H-indazol-2-yl}phenyl]piperidine]
outcome of the 6 patients with ≥6 months follow-up ([1]; MGMT-unmethylated PK-responders, niraparib in addition to radiotherapy): four are in remission and two had a recurrence of tumor
PFS6 ([1]; niraparib with concurrent RT then maintenance, 11 patients, median follow-up 8.1 months): 64%
Kp (BCRP (ABCG2); Brain:plasma (Kp) ratio): 0.64
Kp uu (BCRP (ABCG2); [9]): 0.15
Kp ([2]; P-gp/BCRP double knock-out rat): 6.3
Kp ([2]; control rat): 0.47
Kp uu ([2]; P-gp/BCRP double knock-out rat): 1.5
Kp uu ([2]; control rat): 0.1
Kp (P-gp (Mdr1-a); Brain:plasma (Kp) ratio): 3.7
Kp uu (P-gp (Mdr1-a); [9]): 0.87
increase of brain tissue concentrations ([3]; BCRP knockout rats vs control): < 2 fold
increase of brain tissue concentrations ([3]; Mdr1-a (P-gp) knockout rats vs control, iv bolus plus infusion, steady state): 9 fold
increase of brain tissue concentrations ([3]; Pgp/BCRP double knockout rats vs control): 14 fold
fraction unbound (in vitro): 0.04
estimated mean Kp,uu,brain, times higher for niraparib compared to olaparib ([4]; BM mice): 5.6 ×
MALDI IMS Brain Section Median, adjusted free concentration ([4]; BM mice): 80
MALDI IMS Brain Section Median, total concentration ([4]; BM mice): 473
Bulk Brain Homogenate Avg, adjusted free concentration ([4]; BM mice): 91 ng/g
Bulk Brain Homogenate Avg, total concentration ([4]; BM mice): 543 ng/g
MALDI IMS Brain Section Median, adjusted free concentration ([4]; Control mice): 89
MALDI IMS Brain Section Median, total concentration ([4]; Control mice): 532
Bulk Brain Homogenate Avg, adjusted free concentration ([4]; Control mice): 111 ng/g
Bulk Brain Homogenate Avg, total concentration ([4]; Control mice): 658 ng/g
estimated mean Kp,uu,brain, times higher for niraparib compared to olaparib ([4]; control mice): 3.0 ×
Kp uu at 2 h post final dose [4, 10]: 0.18
Kp uu at 2 h ([4]; female, CrTac:NCr-Foxnlnu, mouse, oral, Control mice, from bulk brain homogenate and terminal plasma free concentrations): 0.18
concentration at 2 h [4, 11]: 2.54 µg/mL
concentration at 2 h [4, 12]: 3.1 µg/mL
distribution in coronal brain sections by MALDI IMS ([4]; mice administered niraparib): consistent concentrations distributed throughout the brain parenchyma with locally higher concentrations detected from tumor regions
MALDI IMS Brain Section Average, adjusted free concentration ([5]; Monkey 1): (10) ng/g
Pre-Dose Plasma, total concentration [5, 13]: BQL
Pre-Dose Plasma, adjusted free concentration ([5]; Monkey 1, Day 2): 10 ng/mL
Pre-Dose Plasma, total concentration ([5]; Monkey 1, Day 2): 28 ng/mL
Pre-Dose Plasma, adjusted free concentration ([5]; Monkey 1, Day 3): 18 ng/mL
Pre-Dose Plasma, total concentration ([5]; Monkey 1, Day 3): 49 ng/mL
Pre-Dose Plasma, adjusted free concentration ([5]; Monkey 1, Day 4): 22 ng/mL
Pre-Dose Plasma, total concentration ([5]; Monkey 1, Day 4): 59 ng/mL
Pre-Dose Plasma, adjusted free concentration ([5]; Monkey 1, Day 5): (26) ng/mL
Pre-Dose Plasma, total concentration ([5]; Monkey 1, Day 5): 72 ng/mL
Bulk Brain Homogenate, adjusted free concentration ([5]; Monkey 1): (14) ng/g
Terminal CSF ([5]; Monkey 1): 9 ng/mL
Terminal Plasma, adjusted free concentration ([5]; Monkey 1): (31) ng/mL
Terminal Plasma, total concentration ([5]; Monkey 1, at necropsy after 5 daily oral doses): 84 ng/mL
MALDI IMS Brain Section Average, adjusted free concentration ([5]; Monkey 2): (25) ng/g
Pre-Dose Plasma, total concentration [5, 14]: BQL
Pre-Dose Plasma, adjusted free concentration ([5]; Monkey 2, Day 2): 21 ng/mL
Pre-Dose Plasma, total concentration ([5]; Monkey 2, Day 2): 58 ng/mL
Pre-Dose Plasma, adjusted free concentration ([5]; Monkey 2, Day 3): 32 ng/mL
Pre-Dose Plasma, total concentration ([5]; Monkey 2, Day 3): 87 ng/mL
Pre-Dose Plasma, adjusted free concentration ([5]; Monkey 2, Day 4): 27 ng/mL
Pre-Dose Plasma, total concentration ([5]; Monkey 2, Day 4): 74 ng/mL
Pre-Dose Plasma, adjusted free concentration ([5]; Monkey 2, Day 5): (24) ng/mL
Pre-Dose Plasma, total concentration ([5]; Monkey 2, Day 5): 66 ng/mL
Bulk Brain Homogenate, adjusted free concentration ([5]; Monkey 2): (29) ng/g
Terminal CSF ([5]; Monkey 2): 25 ng/mL
Terminal Plasma, adjusted free concentration ([5]; Monkey 2): (160) ng/mL
Kp,uu,brain, times higher for niraparib compared to olaparib [5, 15]: 15 ×
detection and distribution in coronal brain sections by MALDI IMS [5, 15]: consistent concentrations distributed throughout the brain parenchyma
Kp uu ([5]; Monkey 2, from bulk brain homogenate and terminal plasma free concentrations, read-out: Kp, uu Brain/Plasma): 0.16
Kp uu ([5]; mean of Monkey 1 and 2, read-out: Mean Kp, uu Brain/Plasma): 0.3
patients with suppression of PAR levels after ex vivo radiation (PAR (PARP inhibition)): 79%
solubility (physchem): 0.7 to 1.1 mg/mL (≈ 2180 to 3430 µM)
Kp (clinical; [16]): 7.89
Kp uu (clinical; [16]): 1.8
Kp (clinical; [17]): 4.27
Kp uu (clinical; [17]): 0.8
pEC50 (PARP activity): 8.40
CC50 [6]: 10 to 100 nM
patients with thrombocytopenia related to niraparib ([7]; 6 initial patients enrolled in phase 2, niraparib with concurrent RT): Five of the 6
patients with Grade 3 treatment-related adverse event (ALT and AST elevation) ([7]; Phase 0, twelve patients, 300 mg QD 4 days): one patient
serious AEs after starting dose lowered to 200 mg ([7]; both phases): no serious AEs were observed thereafter
patients with treatment-related thrombocytopenia ([7]; expansion phase, two patients enrolled): two patients
tolerability [7]: well-tolerated, with low rates of grade 3+ toxicity
tolerability ([7]; listed as Niraparib): generally well-tolerated
thrombocytopenia cases deemed serious and life-threatening ([7]; of the 5 thrombocytopenia cases in phase 2): 3/5
mean unbound concentration in Gd-nonenhancing tumor region ([8]; 200 mg, 3-5 hr cohort 1 (n=6)): 0.2508 µM
mean unbound concentration in Gd-nonenhancing tumor region ([8]; 300 mg QD 4 days, 3-5 hr cohort (n=8), interim results): 0.3409 µM
mean unbound concentration in Gd-nonenhancing tumor region ([8]; 300 mg QD 4 days, 8-12 hr cohort (n=3)): 0.3319 µM
mean unbound concentration in Gd-nonenhancing tumor region ([8]; 300 mg, 3-5 hr cohort 1 (n=20)): 0.3662 µM
mean unbound concentration in non-enhancing regions ([8]; 300 or 200 mg QD 4 days, 29 patients, further interim results): 0.2582 µM

O=C(c1cc(Cc2n[nH]c(=O)c3ccccc23)ccc1F)N1CCN(C(=O)C2CC2)CC1 [olaparib]
Bulk Brain Homogenate Avg, adjusted free concentration ([4]; BM mice): 2 ng/g
Bulk Brain Homogenate Avg, total concentration ([4]; BM mice): 11 ng/g
Bulk Brain Homogenate Avg, adjusted free concentration ([4]; Control mice): 2 ng/g
Bulk Brain Homogenate Avg, total concentration ([4]; Control mice): 12 ng/g
Kp, uu Brain ([4]; Control mice, from bulk brain homogenate and terminal plasma free concentrations): 0.02
Kp uu at 2 h post final dose [4, 10]: 0.03
concentration at 2 h [4, 11]: 0.254 µg/mL
concentration at 2 h [4, 12]: 0.322 µg/mL
MALDI IMS Brain Section Average, total concentration ([5]; Monkey 1): BLQ
Pre-Dose Plasma, total concentration [5, 13]: BQL
Pre-Dose Plasma, adjusted free concentration ([5]; Monkey 1, Day 2): 8 ng/mL
Pre-Dose Plasma, total concentration ([5]; Monkey 1, Day 2): 27 ng/mL
Pre-Dose Plasma, adjusted free concentration ([5]; Monkey 1, Day 3): 8 ng/mL
Pre-Dose Plasma, total concentration ([5]; Monkey 1, Day 3): 26 ng/mL
Pre-Dose Plasma, adjusted free concentration ([5]; Monkey 1, Day 4): 10 ng/mL
Pre-Dose Plasma, total concentration ([5]; Monkey 1, Day 4): 33 ng/mL
Pre-Dose Plasma, adjusted free concentration ([5]; Monkey 1, Day 5): (10) ng/mL
Pre-Dose Plasma, total concentration ([5]; Monkey 1, Day 5): 33 ng/mL
Bulk Brain Homogenate, adjusted free concentration ([5]; Monkey 1): (2) ng/g
Bulk Brain Homogenate, total concentration ([5]; Monkey 1): 12 ng/g
Terminal CSF ([5]; Monkey 1): 13 ng/mL
Terminal Plasma, adjusted free concentration ([5]; Monkey 1): (99) ng/mL
Kp, uu Brain/Plasma ([5]; Monkey 1, from bulk brain homogenate and terminal plasma free concentrations): 0.02
MALDI IMS Brain Section Average, total concentration ([5]; Monkey 2): BLQ
Pre-Dose Plasma, total concentration [5, 14]: BQL
Pre-Dose Plasma, adjusted free concentration ([5]; Monkey 2, Day 2): 16 ng/mL
Pre-Dose Plasma, total concentration ([5]; Monkey 2, Day 2): 51 ng/mL
Pre-Dose Plasma, adjusted free concentration ([5]; Monkey 2, Day 3): 5 ng/mL
Pre-Dose Plasma, total concentration ([5]; Monkey 2, Day 3): 17 ng/mL
Pre-Dose Plasma, adjusted free concentration ([5]; Monkey 2, Day 4): 16 ng/mL
Pre-Dose Plasma, total concentration ([5]; Monkey 2, Day 4): 53 ng/mL
Pre-Dose Plasma, adjusted free concentration ([5]; Monkey 2, Day 5): (14) ng/mL
Pre-Dose Plasma, total concentration ([5]; Monkey 2, Day 5): 45 ng/mL
Bulk Brain Homogenate, adjusted free concentration ([5]; Monkey 2): (2) ng/g
Bulk Brain Homogenate, total concentration ([5]; Monkey 2): 11 ng/g
Terminal CSF ([5]; Monkey 2): 6 ng/mL
Terminal Plasma, adjusted free concentration ([5]; Monkey 2): (78) ng/mL
Kp, uu Brain/Plasma ([5]; Monkey 2, from bulk brain homogenate and terminal plasma free concentrations): 0.03
detection and distribution in coronal brain sections by MALDI IMS [5, 15]: not detected
Mean Kp, uu Brain/Plasma ([5]; mean of Monkey 1 and 2): 0.02
